Seven compounds from PubChem BioAssay (NCI) can be followed below.

Among the test systems are MALME-3M melanoma; MDA-MB-435; NCI-H226 lung; NCI-H460 lung; NCI/ADR-RES ovarian; OVCAR-8 ovarian; SF-539 CNS; SR leukemia; SW-620 colon; UACC-257 melanoma.
Common to all, as to experiment: NCI-60 cell line screen, 48 h

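Briefly, cells in 96-well plates were exposed to five compound concentrations for 48 h, and endpoints were estimated by linear interpolation. GI50 marks 50% less growth. TGI marks complete inhibition of growth.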

Consider `CN1CCN(CC(=O)N(C)c2ccc(N=C(c3ccccc3)c3c(O)[nH]c4ccc(C#N)cc34)cc2)CC1`, for which the GI50 in the test on MALME-3M melanoma is 1.77 µM; with MDA-MB-435, 1.66 µM; in the test on NCI-H226 lung it was 3.19 µM; in the test with NCI-H460 lung, 1.38 µM; in the test on NCI/ADR-RES ovarian, 17.9 µM; in the test with OVCAR-8 ovarian, 4.87 µM. For the same compound, the GI50 with SF-539 CNS was 0.961 µM; in the test with SR leukemia it was 0.721 µM; in the test on SW-620 colon, 1.9 µM; in the test on UACC-257 melanoma it was 2.5 µM. For the same compound, the TGI was 3.39 µM in the test with MALME-3M melanoma; 4.04 µM in the test with MDA-MB-435; 16 µM in the test with NCI-H226 lung; 3.25 µM in the test on NCI-H460 lung; 60.1 µM in the test with NCI/ADR-RES ovarian; over 100 µM in the test on OVCAR-8 ovarian. The TGI stood at 2.23 µM with SF-539 CNS, 5.62 µM with SR leukemia, 6.93 µM with SW-620 colon and 6.2 µM with UACC-257 melanoma.
On to `COc1ccc(C(O)c2cc3c(N)c(C(=O)Nc4ccc(Cl)cc4)sc3nc2C)cc1` (centres undefined), for which the GI50 was 2.04 µM in the test on MALME-3M melanoma; 0.317 µM with MDA-MB-435; 2.85 µM in the test with NCI-H226 lung; 2.3 µM in the test on NCI-H460 lung; 3.86 µM with NCI/ADR-RES ovarian; 4.02 µM with OVCAR-8 ovarian. In addition, the GI50 in the test on SF-539 CNS was 2.4 µM; with SR leukemia, 0.44 µM; in the test with SW-620 colon it was 2.62 µM; in the test on UACC-257 melanoma, 4.99 µM. The TGI with MALME-3M melanoma was found to be 18.9 µM; in the test on MDA-MB-435 it was 1.17 µM; in the test with NCI-H226 lung, 9.47 µM; in the test on NCI-H460 lung it was 6.25 µM; in the test on NCI/ADR-RES ovarian, 28 µM; in the test with OVCAR-8 ovarian, 26.7 µM. Moreover, the TGI in the test on SF-539 CNS was 8.08 µM; in the test with SR leukemia, over 100 µM; with SW-620 colon, 37.6 µM; in the test on UACC-257 melanoma, 57.5 µM.
With `CCOC(=O)[C@@H](C)C[C@H](Cc1ccccc1)NC(=O)c1csc([C@@H](C[C@H](C(C)C)N(C)C(=O)[C@@H](NC(=O)[C@H]2CCCCN2C)C(C)(C)CC)OC(C)=O)n1`, the GI50 is under 0.00167 µM in the test with MALME-3M melanoma; under 0.00167 µM in the test with MDA-MB-435; under 0.00167 µM in the test on NCI-H226 lung; under 0.00167 µM with NCI-H460 lung; 0.00891 µM with NCI/ADR-RES ovarian; 0.00231 µM in the test on OVCAR-8 ovarian. In addition, the GI50 in the test on SF-539 CNS is 0.00226 µM; in the test with SR leukemia, under 0.00167 µM; with SW-620 colon, under 0.00167 µM; in the test on UACC-257 melanoma it was 0.0442 µM. The TGI was 3.68 µM with MALME-3M melanoma; under 0.00167 µM with MDA-MB-435; 0.0336 µM with NCI-H226 lung; over 12.9 µM with NCI-H460 lung; over 16.7 µM in the test on OVCAR-8 ovarian; 0.00791 µM in the test on SF-539 CNS. Moreover, the figures for the TGI in the test on SR leukemia, in the test on SW-620 colon and with UACC-257 melanoma were 3.39 µM, over 16.7 µM and over 16.7 µM, respectively.
For `COc1cc(/C=C2\C(=O)N(Cc3ccc(Cl)cc3)c3ccccc32)cc(OC)c1OC`, the GI50 in the test on MALME-3M melanoma was 3.73 µM; with MDA-MB-435 it was 2.32 µM; with NCI-H226 lung, 5.2 µM; in the test on NCI-H460 lung, 2.82 µM; with NCI/ADR-RES ovarian, 2.85 µM; in the test on OVCAR-8 ovarian it was 3.4 µM. Moreover, the GI50 with SF-539 CNS was 4.95 µM; in the test with SR leukemia, 1.51 µM; in the test with SW-620 colon, 1.78 µM; with UACC-257 melanoma, 6.04 µM. Besides, the TGI in the test with MALME-3M melanoma is 16.3 µM; with MDA-MB-435, 7.03 µM; with NCI-H226 lung it was 19.9 µM; in the test on NCI-H460 lung it was 8.38 µM; in the test with NCI/ADR-RES ovarian it was 9.96 µM; in the test with OVCAR-8 ovarian it was over 45.2 µM. In addition, the TGI in the test with SF-539 CNS amounted to 11.1 µM; in the test on SR leukemia, 4.19 µM; with SW-620 colon it was 3.53 µM; in the test on UACC-257 melanoma, 26.6 µM.
Take `O=C1NC(=S)S/C1=C\c1cn(-c2ccccc2)nc1-c1ccccc1`: the GI50 was 3.84 µM in the test with MALME-3M melanoma; 4.91 µM with MDA-MB-435; 20.3 µM in the test with NCI-H226 lung; 5.5 µM with NCI-H460 lung; 4.8 µM in the test on NCI/ADR-RES ovarian; 11.4 µM with OVCAR-8 ovarian. In addition, the GI50 with SF-539 CNS is 5.53 µM; with SR leukemia it was 7.29 µM; with SW-620 colon, 19.6 µM; with UACC-257 melanoma, 13.2 µM. The TGI was 13.1 µM with MALME-3M melanoma; 36.6 µM with MDA-MB-435; 76.5 µM in the test with NCI-H226 lung; 19.2 µM in the test with NCI-H460 lung; over 100 µM with NCI/ADR-RES ovarian; over 100 µM in the test on OVCAR-8 ovarian. The TGI is 21.1 µM with SF-539 CNS, 49.7 µM with SR leukemia, over 100 µM in the test on SW-620 colon and 73.9 µM in the test with UACC-257 melanoma.
Take `COc1cc(-c2cc(/C=C/C(=O)c3ccc(F)c(F)c3)[nH]n2)cc(OC)c1OC`: the GI50 in the test on MALME-3M melanoma was 2.96 µM; with MDA-MB-435 it was 2.88 µM; with NCI-H226 lung, 3.72 µM; in the test with NCI-H460 lung, 2.96 µM; in the test on NCI/ADR-RES ovarian, 3.46 µM; in the test on OVCAR-8 ovarian, 2.88 µM. In addition, the GI50 in the test on SF-539 CNS is 3.76 µM; with SR leukemia, 2.92 µM; with SW-620 colon, 3.42 µM; in the test on UACC-257 melanoma it was 1.75 µM. For the same compound, the TGI in the test with MALME-3M melanoma worked out at 9.4 µM; with MDA-MB-435, 13.3 µM; in the test on NCI-H226 lung it was 15.8 µM; in the test on NCI-H460 lung, 8.24 µM; in the test with NCI/ADR-RES ovarian, 50.5 µM; in the test on OVCAR-8 ovarian it was 17.3 µM. For the same compound, the TGI with SF-539 CNS was 17.7 µM; in the test on SR leukemia it was over 100 µM; in the test with SW-620 colon, over 100 µM; in the test with UACC-257 melanoma, 6.28 µM.
Regarding `CCCCN(CCCC)C(=O)[C@H](CC)[C@@H]1CC[C@@H](C)[C@@H]([C@H](C)[C@@H](O)[C@@H](C)C(=O)[C@H](CC)C2O[C@]3(C=C[C@@H](O)[C@]4(CC[C@@](C)([C@H]5CC[C@](O)(CC)[C@H](C)O5)O4)O3)[C@H](C)C[C@@H]2C)O1` (some centres undefined), the GI50 is 1.87 µM in the test with MALME-3M melanoma; 2.92 µM with MDA-MB-435; 2.01 µM in the test on NCI-H226 lung; 1.99 µM with NCI-H460 lung; 2.5 µM with NCI/ADR-RES ovarian; 3.43 µM with OVCAR-8 ovarian. Also, the GI50 in the test on SF-539 CNS is 1.88 µM; with SR leukemia it was 2.89 µM; with SW-620 colon, 2.75 µM; in the test with UACC-257 melanoma, 2.9 µM. Moreover, the TGI with MALME-3M melanoma is 4.16 µM; in the test on MDA-MB-435, 10.1 µM; in the test with NCI-H226 lung, 5.51 µM; with NCI-H460 lung, 4.47 µM; in the test on NCI/ADR-RES ovarian, 9.02 µM; with OVCAR-8 ovarian, 65.4 µM. In addition, the TGI in the test on SF-539 CNS turned out to be 4.2 µM; in the test on SR leukemia it was 8.53 µM; with SW-620 colon it was 11.1 µM; with UACC-257 melanoma, 9.71 µM.
